Calls of active or inactive are those of the source. The rule behind the calls is not given here.

System in the first experiment: not listed separately
The experiment is described as follows: Inhibition of MAPK.
For the molecule `COc1cc(O)c2c(c1)CCCC(O)[C@H](O)C(=O)/C=C\C[C@H](C)OC2=O` (single isomer, unassigned), the midpoint of inhibition, the IC50, lay at 4 nM.

The target in the next experiment is T1, Tyrosine-protein kinase Lck (Homo sapiens, UniProt P06239). Nature of the experiment: Inhibition of LCK at 10 uM.
Target sequence in this assay (P06239 2-509 limits assumed): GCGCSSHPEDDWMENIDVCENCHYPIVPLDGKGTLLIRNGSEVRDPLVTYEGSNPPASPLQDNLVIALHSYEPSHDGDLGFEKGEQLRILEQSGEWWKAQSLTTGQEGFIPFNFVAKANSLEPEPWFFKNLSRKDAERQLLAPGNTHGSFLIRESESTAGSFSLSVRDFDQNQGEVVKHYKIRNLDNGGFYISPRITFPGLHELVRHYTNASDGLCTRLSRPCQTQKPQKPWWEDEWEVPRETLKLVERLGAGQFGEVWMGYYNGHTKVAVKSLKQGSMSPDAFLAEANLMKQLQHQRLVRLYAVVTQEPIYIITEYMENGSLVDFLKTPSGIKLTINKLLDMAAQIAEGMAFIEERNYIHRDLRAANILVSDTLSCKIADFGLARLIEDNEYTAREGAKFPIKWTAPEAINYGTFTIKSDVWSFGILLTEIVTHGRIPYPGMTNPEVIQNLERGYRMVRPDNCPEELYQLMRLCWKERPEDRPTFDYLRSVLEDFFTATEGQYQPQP
For the molecule `COc1cc(O)c2c(c1)/C=C/CC(=O)NCCCCNC(=O)CCC[C@H](C)OC2=O`, the outcome was inactive. Consider `COc1cc(O)c2c(c1)/C=C/CC(=O)OCCCC(c1ccccc1)(C(C)O)CCCOC(=O)CCC[C@H](C)OC2=O` (stereo not given in full), for which the result was inactive. As to `COc1cc(O)c2c(c1)/C=C/CC(=O)OCCCCCCCCOC(=O)CCC[C@H](C)OC2=O`, the outcome was inactive. Take `COc1cc(O)c2c(c1)/C=C/CC(=O)OC/C=C\COC(=O)CCC[C@H](C)OC2=O`: the result was inactive. For `COc1cc(O)c2c(c1)/C=C/CC(=O)OCCC1(CCCCC1)CCOC(=O)CCC[C@H](C)OC2=O`, the result was inactive. `COc1cc(O)c2c(c1)/C=C/CC(=O)OCCCCCCOC(=O)CCC[C@H](C)OC2=O`: the result was inactive. As to `COc1cc(O)c2c(c1)/C=C/CC(=O)NCCCOCCCCOCCCNC(=O)CCC[C@H](C)OC2=O`, the outcome was inactive. Consider `COc1cc(O)c2c(c1)/C=C/CC(=O)OCCCC(c1ccccc1)(C(O)c1ccccc1)CCCOC(=O)CCC[C@H](C)OC2=O` (stereo not given in full), for which the outcome was inactive. For `COc1cc(O)c2c(c1)/C=C/CC(=O)OCCOC(=O)CCC[C@H](C)OC2=O`, the outcome was inactive. Turning to `COc1cc(O)c2c(c1)/C=C/CC(=O)OCCCCOC(=O)CCC[C@H](C)OC2=O`, the outcome was inactive. As to `COc1cc(O)c2c(c1)/C=C/CC(=O)OCc1cccc(c1)COC(=O)CCC[C@H](C)OC2=O`, the result was inactive. `COc1cc(O)c2c(c1)/C=C/CC(=O)NCCCN(C)CCCNC(=O)CCC[C@H](C)OC2=O`: the result was inactive.

For `COc1cc(O)c2c(c1)/C=C/CC(=O)NCCCOCCCNC(=O)CCC[C@H](C)OC2=O`, the result was inactive. Take `COc1cc(O)c2c(c1)/C=C/CC(=O)OCCOCC#CCOCCOC(=O)CCC[C@H](C)OC2=O`: the outcome was inactive. `COc1cc(O)c2c(c1)/C=C/CC(=O)OCCCOCCCOC(=O)CCC[C@H](C)OC2=O`: the outcome was inactive. Still for that read-out and setting: next, `COc1cc(O)c2c(c1)/C=C/CC(=O)NCCCCCCCNC(=O)CCC[C@H](C)OC2=O`: “inactive”; `COc1cc(O)c2c(c1)/C=C/CC(=O)OC/C=C(\C)CC/C=C(\C)COC(=O)CCC[C@H](C)OC2=O`: “inactive”.

For the next experiment, the target named is T1, Tyrosine-protein kinase Lck.
Target sequence in this assay (P06239 whole entry): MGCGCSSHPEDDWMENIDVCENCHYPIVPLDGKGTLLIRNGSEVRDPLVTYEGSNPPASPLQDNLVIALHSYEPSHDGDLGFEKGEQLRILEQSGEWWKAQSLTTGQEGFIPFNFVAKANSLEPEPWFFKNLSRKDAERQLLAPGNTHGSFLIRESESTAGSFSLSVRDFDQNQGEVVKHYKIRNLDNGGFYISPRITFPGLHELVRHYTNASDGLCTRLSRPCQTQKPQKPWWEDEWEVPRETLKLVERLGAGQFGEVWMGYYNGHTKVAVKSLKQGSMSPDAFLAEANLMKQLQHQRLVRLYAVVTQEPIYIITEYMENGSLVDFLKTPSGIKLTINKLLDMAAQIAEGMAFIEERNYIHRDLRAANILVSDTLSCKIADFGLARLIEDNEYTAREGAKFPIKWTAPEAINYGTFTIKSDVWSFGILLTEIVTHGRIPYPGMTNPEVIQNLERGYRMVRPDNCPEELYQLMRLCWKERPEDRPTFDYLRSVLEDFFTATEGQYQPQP
In the case of `COc1cc(O)c2c(c1)CCCC(O)[C@H](O)C(=O)/C=C\C[C@H](C)OC2=O` (single isomer, unassigned), the IC50 (usually the concentration needed to halve the response being measured) was 750 nM. `COc1cc(O)c2c(c1)/C=C/C[C@@H](O)[C@H](O)C(=O)CCC[C@H](C)OC2=O` [DIHYDROXYMETHYLZEARALENONE] returned an IC50 of 200 nM.

For the origin of these results see ChEMBL document CHEMBL1136873, “Application of combinatorial biocatalysis for a unique ring expansion of dihydroxymethylzearalenone” (Bioorg Med Chem Lett, 2009).
